Assay [1] concerns the target Mitogen-activated protein kinase 1 (Homo sapiens, UniProt P28482). In words: Inhibition of ERK2 (unknown origin) using Ets-1 as substrate measured after 30 mins in presence of [gamma32P]ATP by liquid scintillation counting method.
Assay [2] has as its target AMP-activated protein kinase, AMPK. As to the kind of experiment: Inhibition of AMPK (unknown origin) using SAMS peptide as substrate measured after 30 mins in presence of [gamma32P]ATP by liquid scintillation counting method. Details: species or system Homo sapiens.
The target in assay [3] is Maternal embryonic leucine zipper kinase (Homo sapiens, UniProt Q14680). As to the kind of experiment: Inhibition of His6-tagged MELK catalytic domain (1 to 340 residues) (unknown origin) expressed in Escherichia coli BL21 (DE3) cells using Bcl-GL as substrate measured after 30 mins in presence of [gamma32P]ATP by liquid scintillation counting method.
Maternal embryonic leucine zipper kinase, sequence (Q14680 whole entry, the tested form may be a part): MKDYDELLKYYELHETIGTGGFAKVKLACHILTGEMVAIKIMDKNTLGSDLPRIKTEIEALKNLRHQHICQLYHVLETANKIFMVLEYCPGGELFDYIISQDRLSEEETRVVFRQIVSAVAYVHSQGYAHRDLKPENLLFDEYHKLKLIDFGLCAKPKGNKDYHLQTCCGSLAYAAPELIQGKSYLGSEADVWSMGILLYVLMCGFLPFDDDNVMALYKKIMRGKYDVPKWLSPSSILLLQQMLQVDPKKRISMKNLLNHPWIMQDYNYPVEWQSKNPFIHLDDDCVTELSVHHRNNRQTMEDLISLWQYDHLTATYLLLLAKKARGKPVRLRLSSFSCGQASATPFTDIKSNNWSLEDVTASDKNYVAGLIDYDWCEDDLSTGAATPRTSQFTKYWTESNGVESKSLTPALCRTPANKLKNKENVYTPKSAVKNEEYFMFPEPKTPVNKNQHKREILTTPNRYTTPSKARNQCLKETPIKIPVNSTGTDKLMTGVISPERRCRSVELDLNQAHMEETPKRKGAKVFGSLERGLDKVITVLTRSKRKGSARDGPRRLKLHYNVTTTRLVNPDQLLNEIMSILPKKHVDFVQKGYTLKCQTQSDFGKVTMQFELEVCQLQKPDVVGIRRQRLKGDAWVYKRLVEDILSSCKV
For a further assay, the system named is SUM-159-PT. In words: Antiproliferative activity against human SUM159 cells up to 20 uM after 72 hrs by CellTitre-Blue assay. The format is functional, cell-based.
In another assay the test system is MCF-10A. In words: Antiproliferative activity against human MCF10A cells at 10 uM after 72 hrs by CellTitre-Blue assay. The format is functional, cell-based.
In another assay the test system is HCC70. As to the kind of experiment: Antiproliferative activity against human HCC70 cells up to 20 uM after 72 hrs by CellTitre-Blue assay. The assay is classed as functional, cell-based.
Another assay deals with BT-549. In words: Antiproliferative activity against human BT549 cells up to 20 uM after 72 hrs by CellTitre-Blue assay. The format is functional, cell-based.

Each structure is given as a SMILES string. The source made the active and inactive calls. No cut-off for these calls is given here. Bounds are passed on as bounds.

Mitogen-activated protein kinase 1, sequence (P28482 whole entry): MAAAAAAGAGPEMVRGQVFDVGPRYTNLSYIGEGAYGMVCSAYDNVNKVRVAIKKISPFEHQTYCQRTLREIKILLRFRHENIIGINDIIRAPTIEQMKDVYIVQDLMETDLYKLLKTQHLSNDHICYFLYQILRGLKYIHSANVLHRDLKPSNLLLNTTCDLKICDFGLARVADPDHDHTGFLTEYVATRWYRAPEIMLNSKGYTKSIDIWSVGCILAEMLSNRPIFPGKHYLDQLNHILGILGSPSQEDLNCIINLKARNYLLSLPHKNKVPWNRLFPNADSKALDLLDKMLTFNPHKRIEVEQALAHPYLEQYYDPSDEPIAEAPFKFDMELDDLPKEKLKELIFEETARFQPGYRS

In the case of `CN1CCN(CC(=O)N(C)c2ccc(N/C(=C3\C(=O)Nc4ccc(C(=O)O)cc43)c3ccccc3)cc2)CC1`, the Ki (in general, a dissociation constant, usually derived from enzyme kinetics or from competition with a known ligand) in assay [1] came to 19000 nM; in assay [2] it was 4.9 nM.

For `CN1CCN(CC(=O)N(C)c2ccc(N/C(=C3\C(=O)Nc4cc(C(=O)NCCCN)ccc43)c3ccccc3)cc2)CC1`, in assay [3], the half-inhibitory concentration (IC50) (as a rule, the concentration that gives 50% inhibition) is above 5000 nM and the Ki was above 650 nM.

`COC(=O)c1ccc2c(c1)/C(=C(/Nc1ccc(N(C)C(=O)CN3CCN(C)CC3)cc1)c1ccccc1)C(=O)N2`: the Ki amounted to 3000 nM in assay [1] and 9.2 nM in assay [2]. The outcome in the assay on SUM-159-PT, in the assay on HCC70 and in the assay with BT-549 was Active. In the assay on MCF-10A, the outcome was inactive.

On to `CN1CCN(CC(=O)N(C)c2ccc(N/C(=C3\C(=O)Nc4ccccc43)c3ccccc3)cc2)CC1`, for which, in assay [2], the Ki is 4.2 nM.

Values taken from ChEMBL document CHEMBL4028816, “Discovery of a potent inhibitor of MELK that inhibits expression of the anti-apoptotic protein Mcl-1 and TNBC cell growth” (Bioorg Med Chem, 2017).
